In patent US20100160369A1, “S1P1 Agonists and Methods of Making And Using” (EXELIXIS, INC., priority 2008, published 2010) one finds EC50 data, which are given here for 28 compounds.

A value given as a limit tells only on which side of the number the result lay.

What all share (assay type): cell-based
The target of test [1] is T1, S1P1 (Homo sapiens, UniProt P21453). Nature of the test: Tango β-arrestin Recruitment Assay in U2OS cells (Assay 2b). Also noted: linker with TEV protease (N1a) cleavage site (C). The settings on record: Tango β-arrestin Recruitment Assay. An excerpt:
(§1) For the Tango™ β-arrestin recruitment assay, the cytoplasmic C-terminus of S1P1 is tethered to the tTA transcriptional activator with a linker that contains a cleavage site for the N1a protease from tobacco etch virus (TEV protease). The C-terminus of the human β-arrestin2 protein is fused to TEV protease. Binding of an agonist recruits the β-arrestin-TEV fusion protein to the receptor resulting in cleavage of the linker and release of tTA to enter the nucleus and subsequently activate a tTA-dependent luciferase reporter gene.
Alternatively, U2OS cells expressing the reporter gene and S1P1 (Invitrogen) were added to the wells of a 384-well white opaque bottom assay plate (PerkinElmer) at […] per well. The cells were serum starved for 48 h in Freestyle medium (Invitrogen). Test compounds were tested at maximum concentrations of 1 μM for the agonist assay. Compounds were diluted in DMSO (10 concentration points, 3-fold each) and added to the assay plate at a 1% final DMSO concentration. The efficacy control was 1 μM S1P (Avanti). For each compound, there were duplicate assay plates and each assay plate had duplicate wells per concentration point. The plate was incubated overnight at 37° C. The GeneBLAzer β-lactamase assay reagent (Invitrogen) was added and the plates were incubated for an additional 2 h at room temperature. Fluorescence was measured using an EnVision plate reader (PerkinElmer, Waltham, Mass.) at an excitation wavelength of 409 nm and emission wavelengths of 460 nm and 530 nm. The emission intensity at each wavelength was background subtracted against wells containing medium only and the F460 nm/F530 nm ratio determined for each concentration of the test compounds. Percent activity was calculated as [(test compound ratio−DMSO ratio)/(positive control ratio−DMSO ratio)*100], where the positive control and DMSO ratios are from cells incubated with the efficacy control 1 μM S1P and 1% DMSO, respectively. The percent activities were plotted against compound concentration to determine EC50 using XLFit (IDBS).
(§2) Assay 1 is the CNG cAMP Assay as described in Biological Example 1. Assay 2a and 2b are the Tango™ β-arrestin Recruitment Assay in HEK293 and U2OS cells, respectively, as described in Biological Example 2. Assay 3a is the hS1P1R GTPγS Binding Assay as described in Biological Example 3. Assay 3b is the GTP-Eu Binding Assay as described in Biological Example 3. EC50's were measured unless otherwise noted. […] In the table, “nt” means the Compound was not tested and “no” means the compound was tested but had no measurable activity under the assay conditions employed.
On the technique in general: Activated receptors often draw arrestin, which recruitment assays turn into a signal.
Target sequence in this assay (P21453 whole entry, the tested form may be a part): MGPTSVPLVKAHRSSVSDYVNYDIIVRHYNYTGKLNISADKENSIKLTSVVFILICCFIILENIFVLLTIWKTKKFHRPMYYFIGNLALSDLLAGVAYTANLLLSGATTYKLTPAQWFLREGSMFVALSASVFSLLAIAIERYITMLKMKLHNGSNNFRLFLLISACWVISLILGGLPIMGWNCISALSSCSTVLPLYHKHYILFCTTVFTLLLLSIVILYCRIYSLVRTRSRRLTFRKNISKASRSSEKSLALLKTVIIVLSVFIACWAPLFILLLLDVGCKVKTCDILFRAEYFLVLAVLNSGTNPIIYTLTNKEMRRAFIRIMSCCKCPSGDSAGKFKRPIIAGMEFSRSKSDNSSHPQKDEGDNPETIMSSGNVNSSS
Target sequence in this assay (P32121 whole entry partner, the tested form may be a part): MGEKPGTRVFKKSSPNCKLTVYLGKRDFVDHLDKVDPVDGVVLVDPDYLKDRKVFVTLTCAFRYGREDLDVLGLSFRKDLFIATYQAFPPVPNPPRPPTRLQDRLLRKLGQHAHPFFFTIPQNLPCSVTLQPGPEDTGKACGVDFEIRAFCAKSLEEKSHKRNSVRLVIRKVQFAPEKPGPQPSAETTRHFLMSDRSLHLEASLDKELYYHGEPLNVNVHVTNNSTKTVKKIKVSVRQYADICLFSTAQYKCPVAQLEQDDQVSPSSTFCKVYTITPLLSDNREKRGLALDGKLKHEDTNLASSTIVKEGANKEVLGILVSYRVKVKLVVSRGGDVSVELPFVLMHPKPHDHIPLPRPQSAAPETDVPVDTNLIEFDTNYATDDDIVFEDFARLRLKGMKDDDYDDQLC

For test [2], the target named is T1, S1P1. Kind of test: CNG cAMP Assay (Assay 1). Conditions: read-out: Assay 1 EC50. Also on record: host or cells: HEK293 cells expressing the CNG channel. The gist of the method:
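cAMP-gated CNG membrane-potential read-out (350/590 nm, T90/T0 ratio) in S1P1/CNG HEK293 cells after 90 min with compound plus NECA 500 nM, S1P 10 nM (EC95), Ro 20-1724 25 μM. Ten 3-fold points from 10 μM, 1.8% DMSO; percent activity vs NECA-only control gives EC50.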
Target sequence in this assay (P21453 whole entry, the tested form may be a part): as the sequence (P21453 whole entry, the tested form may be a part) above

The target of test [3] is T1, S1P1. Kind of test: Tango β-arrestin Recruitment Assay in HEK293 cells (Assay 2a). Also noted: linker with TEV protease (N1a) cleavage site (C); host or cells: HEK293, transiently transfected. Conditions: Tango β-arrestin Recruitment Assay, read-out: Assay 2a EC50.
Description: as §1
Target sequence in this assay (P21453 whole entry, the tested form may be a part): as above
Target sequence in this assay (P32121 whole entry partner, the tested form may be a part): as the sequence (P32121 whole entry partner, the tested form may be a part) above
Frozen HEK293 cells transiently transfected with receptor cDNAs for S1P1 (Invitrogen) were thawed and suspended in 10 mL of Pro293a-CDM culture medium (Invitrogen) supplemented with 4 mM L-Glutamine (Invitrogen), 1× Pen/Strep (100 units/mL penicillin and 100 μg/mL streptomycin, Invitrogen) and 0.1% fatty acid free BSA (Sigma-Aldrich). Cells were added to the wells of a 384-well white opaque bottom assay plate (PerkinElmer) at 3,000-6,000 cells per well and the plate was incubated for approximately 4 h in a 37° C. incubator. Test compounds were tested at maximum concentrations of 10 μM for the agonist assays. Compounds were diluted in DMSO (10 concentration points, 3-fold each) and added to the assay plate at a 1% final DMSO concentration. For each compound, there were duplicate assay plates and each assay plate had duplicate wells per concentration point. The plate was incubated at 37° C. for 30 min. The efficacy control was 5 μM S1P (Avanti). Following agonist addition, the assay plates were incubated in a 37° C. incubator for 16-18 h. Luciferase assay reagent was added and luminescence measured in an EnVision plate reader (PerkinElmer). To determine agonist activity, percent activity was calculated as [(test compound−background)/(positive control−background)* 100], where background is the luminescence of the DMSO alone control and the positive control is the luminescence from cells incubated with the efficacy control 5 μM S1P. The percent activities were plotted against compound concentration to determine EC50 using XLFit (IDBS).
as §2

`CC(O)COc1cc(Cl)c(-c2nnc(-c3cn4cc(C(F)(F)F)cc(Cl)c4n3)o2)cc1Cl` (stereo not drawn) [Entry 4]: the EC50 (as a rule, the concentration at which the effect is half-maximal) on S1P1 [1] (read-out: Assay 2b EC50) is at most 100 nM.
On to `O=C(O)CC(=O)COc1cc(Cl)c(-c2noc(-c3cn4cc(C(F)(F)F)cc(Cl)c4n3)n2)cc1Cl` [Entry 5], for which the half-maximal effective concentration (EC50) on S1P1 [1] (read-out: Assay 2b EC50) is at most 100 nM.
In the case of `O=P(O)(O)OC(CO)COc1cc(Cl)c(-c2noc(-c3cn4cc(C(F)(F)F)cc(Cl)c4n3)n2)cc1Cl` (stereo not drawn) [Entry 9], the 50% effective concentration (EC50) at S1P1 [1] (read-out: Assay 2b EC50) was at most 100 nM.
On the same count and under the same terms, the value for `CS(=O)(=O)COc1cc(Cl)c(-c2noc(-c3cn4cc(C(F)(F)F)cc(Cl)c4n3)n2)cc1Cl` [Entry 12] was at most 100 nM; that for `CC(O)COc1cc(Cl)c(-c2nnc(-c3cn4cc(C(F)(F)F)cc(Cl)c4n3)s2)cc1Cl` (stereo not drawn) [Entry 13] was at most 100 nM; that for `C[C@@H](COc1cc(Cl)c(-c2noc(-c3cn4cc(C(F)(F)F)cc(Cl)c4n3)n2)cc1Cl)OP(=O)(O)O` [Entry 14] was at most 100 nM.
Consider `NC(COc1cc(Cl)c(-c2noc(-c3cn4cc(C(F)(F)F)cc(Cl)c4n3)n2)cc1Cl)COP(=O)(O)O` (stereo not drawn) [Entry 15], for which the EC50 on S1P1 [1] (read-out: Assay 2b EC50) was at most 100 nM.
The same measure, in the same setting: under `O=C(COc1cc(Cl)c(-c2noc(-c3cn4cc(C(F)(F)F)cc(Cl)c4n3)n2)cc1Cl)C(F)(F)F` [Entry 18] stands at most 100 nM.
As to `CC(C)(CO)Oc1cc(Cl)c(-c2noc(-c3cn4cc(C(F)(F)F)cc(Cl)c4n3)n2)cc1Cl` [Entry 26], the EC50 at S1P1 [1] (relative EC50 was measured (footnote 1), read-out: Assay 2b Relative EC50) fell in the range of 100 to 500 nM.
For `OCC(O)CNc1cc(Cl)c(-c2noc(-c3cn4cc(C(F)(F)F)cc(Cl)c4n3)n2)cc1Cl` (stereo not drawn) [Entry 29], the EC50 on S1P1 [1] (read-out: Assay 2b EC50) is at most 100 nM.
In the case of `OCCNc1cc(Cl)c(-c2noc(-c3cn4cc(C(F)(F)F)cc(Cl)c4n3)n2)cc1Cl` [Entry 30], on S1P1 [1] (read-out: Assay 2b EC50), the EC50 is at most 100 nM.
With `O=C(CO)COc1cc(Cl)c(-c2noc(-c3cn4cc(C(F)(F)F)cc(Cl)c4n3)n2)cc1Cl` [Entry 34], on S1P1 [1] (read-out: Assay 2b EC50), the EC50 is at most 100 nM.
Still for that read-out and setting: the value for `N[C@H](CO)COc1cc(Cl)c(-c2nnc(-c3cn4cc(C(F)(F)F)ccc4n3)s2)cc1F` [Entry 43] was at most 100 nM; that for `CC(N)(CO)COc1cc(Cl)c(-c2nnc(-c3cn4cc(C(F)(F)F)ccc4n3)s2)cc1F` (stereo not drawn) [Entry 44] was at most 100 nM.
On to `COc1ccc2nc(-c3nnc(-c4cc(F)c(OCC(N)CO)cc4Cl)s3)cn2c1` (stereo not drawn) [Entry 45], for which the half-maximal effective concentration (EC50) at S1P1 [1] (read-out: Assay 2b EC50) is at most 100 nM.
Turning to `CC(N)(CO)COc1cc(Cl)c(-c2nnc(-c3cn4cc(C(F)(F)F)cc(Cl)c4n3)s2)cc1F` (stereo not drawn) [Entry 46], at S1P1 [1] (read-out: Assay 2b EC50), the EC50 is at most 100 nM.
For the compound `O=C(COc1cc(Cl)c(-c2noc(-c3cn4cc(C(F)(F)F)cc(Cl)c4n3)n2)cc1Cl)COP(=O)(O)O` [Entry 51], on S1P1 [1] (read-out: Assay 2b EC50), the concentration giving a half-maximal response (EC50) is at most 100 nM.
`NCC(O)COc1cc(Cl)c(-c2noc(-c3cn4cc(C(F)(F)F)cc(Cl)c4n3)n2)cc1F` (stereo not drawn) [Example 216, 1-amino-3-[(5-chloro-4-{5-[8-chloro-6-(trifluoromethyl)imidazo[1,2-a]pyridin-2-yl]-1,2,4-oxadiazol-3-yl}-2-fluorophenyl)oxy]propan-2-ol]: the half-maximal effective concentration (EC50) at S1P1 [2] and on S1P1 [3] was at most 100 nM in each case.
In the case of `O=C(O)CCc1ccc(-c2nc(-c3cn4cc(C(F)(F)F)cc(Cl)c4n3)no2)cc1Cl` [Example 235, 3-(2-chloro-4-{3-[8-chloro-6-(trifluoromethyl)imidazo[1,2-a]pyridin-2-yl]-1,2,4-oxadiazol-5-yl}phenyl)propanoic acid], the EC50 on S1P1 [2] was at most 100 nM; on S1P1 [3], 100 to 500 nM.
Taken in the same sequence, the figures for `OCCOc1ccc(-c2nnc(-c3cn4cc(C(F)(F)F)cc(Cl)c4n3)s2)c(Cl)c1` [Example 243, 2-[(3-chloro-4-{5-[8-chloro-6-(trifluoromethyl)imidazo[1,2-a]pyridin-2-yl]-1,3,4-thiadiazol-2-yl}phenyl)oxy]ethanol] were at most 100 nM and 100 to 500 nM.
The corresponding values for `O=C(O)CCOc1ccc(-c2noc(-c3cn4cc(C(F)(F)F)cc(Cl)c4n3)n2)c(Cl)c1` [Example 255, 3-[(3-chloro-4-{5-[8-chloro-6-(trifluoromethyl)imidazo[1,2-a]pyridin-2-yl]-1,2,4-oxadiazol-3-yl}phenyl)oxy]propanoic acid] are at most 100 nM and 100 to 500 nM.
The corresponding values for `CC(CC(=O)O)c1ccc(-c2noc(-c3cn4cc(C(F)(F)F)cc(Br)c4n3)n2)c(Cl)c1` (stereo not drawn) [Example 266, 3-(4-{5-[8-bromo-6-(trifluoromethyl)imidazo[1,2-a]pyridin-2-yl]-1,2,4-oxadiazol-3-yl}-3-chlorophenyl)butanoic acid] are at most 100 nM and 100 to 500 nM.
Take `N#CC(CC(=O)O)c1ccc(-c2noc(-c3cn4cc(C(F)(F)F)cc(Cl)c4n3)n2)c(Cl)c1` (stereo not drawn) [Example 267, 3-(3-chloro-4-{5-[8-chloro-6-(trifluoromethyl)imidazo[1,2-a]pyridin-2-yl]-1,2,4-oxadiazol-3-yl}phenyl)-3-cyanopropanoic acid]: the concentration for a half-maximal effect (EC50) at S1P1 [2] was at most 100 nM; on S1P1 [3], 100 to 500 nM.
With `OCCC(O)c1ccc(-c2noc(-c3cn4cc(C(F)(F)F)cc(Cl)c4n3)n2)c(Cl)c1` (stereo not drawn) [Example 272, 1-(3-chloro-4-{5-[8-chloro-6-(trifluoromethyl)imidazo[1,2-a]pyridin-2-yl]-1,2,4-oxadiazol-3-yl}phenyl)propane-1,3-diol], the EC50 at S1P1 [2] is at most 100 nM; on S1P1 [3], 100 to 500 nM.
The corresponding values for `Fc1ccc(-c2noc(-c3cn4cc(C(F)(F)F)cc(Cl)c4n3)n2)c(Cl)c1` [Example 274, 8-chloro-2-[3-(2-chloro-4-fluorophenyl)-1,2,4-oxadiazol-5-yl]-6-(trifluoromethyl)imidazo[1,2-a]pyridine] are 100 to 500 nM and 500 to 1000 nM.
In the case of `CS(=O)(=O)Cc1ccc(-c2noc(-c3cn4cc(C(F)(F)F)cc(Cl)c4n3)n2)c(Cl)c1` [Example 275, 8-chloro-2-(3-{2-chloro-4-[(methylsulfonyl)methyl]phenyl}-1,2,4-oxadiazol-5-yl)-6-(trifluoromethyl)imidazo[1,2-a]pyridine], the concentration giving a half-maximal response (EC50) at S1P1 [2] was at most 100 nM; on S1P1 [3], 100 to 500 nM.
The corresponding values for `O=C(O)CCc1cc(Cl)c(-c2nnc(-c3cn4cc(C(F)(F)F)cc(Cl)c4n3)o2)cc1F` [Example 282, 3-(5-chloro-4-{5-[8-chloro-6-(trifluoromethyl)imidazo[1,2-a]pyridin-2-yl]-1,3,4-oxadiazol-2-yl}-2-fluorophenyl)propanoic acid] are at most 100 nM and at most 100 nM.
The corresponding values for `O=C(O)CCc1c(Cl)cc(-c2nc(-c3cn4cc(C(F)(F)F)cc(Cl)c4n3)no2)cc1Cl` [Example 314, 3-(2,6-dichloro-4-{3-[8-chloro-6-(trifluoromethyl)imidazo[1,2-a]pyridin-2-yl]-1,2,4-oxadiazol-5-yl}phenyl)propanoic acid] are at most 100 nM and at most 100 nM.
